Test results taken from ChEMBL document CHEMBL5653631, “A Potent and Selective ULK1 Inhibitor Suppresses Autophagy and Sensitizes Cancer Cells to Nutrient Stress” (iScience, 2018).
Each block holds one compound with its values, some of them ahead of it.

Columns and labels:
[1] = biological target: Mitogen-activated protein kinase 11 (Homo sapiens) (UniProt Q15759); experiment: Inhibition of human recombinant p38beta at 500 nM in presence of ATP by radiometric assay relative to control
[2] = biological target: Tyrosine-protein kinase SYK (Homo sapiens) (UniProt P43405); experiment: Inhibition of human recombinant SYK at 500 nM in presence of ATP by radiometric assay relative to control
[3] = biological target: T1, cGMP-dependent protein kinase 2 (Homo sapiens) (UniProt Q13237); experiment: Inhibition of human recombinant PKG2 at 500 nM in presence of ATP by radiometric assay relative to control
T1 sequence (whole entry): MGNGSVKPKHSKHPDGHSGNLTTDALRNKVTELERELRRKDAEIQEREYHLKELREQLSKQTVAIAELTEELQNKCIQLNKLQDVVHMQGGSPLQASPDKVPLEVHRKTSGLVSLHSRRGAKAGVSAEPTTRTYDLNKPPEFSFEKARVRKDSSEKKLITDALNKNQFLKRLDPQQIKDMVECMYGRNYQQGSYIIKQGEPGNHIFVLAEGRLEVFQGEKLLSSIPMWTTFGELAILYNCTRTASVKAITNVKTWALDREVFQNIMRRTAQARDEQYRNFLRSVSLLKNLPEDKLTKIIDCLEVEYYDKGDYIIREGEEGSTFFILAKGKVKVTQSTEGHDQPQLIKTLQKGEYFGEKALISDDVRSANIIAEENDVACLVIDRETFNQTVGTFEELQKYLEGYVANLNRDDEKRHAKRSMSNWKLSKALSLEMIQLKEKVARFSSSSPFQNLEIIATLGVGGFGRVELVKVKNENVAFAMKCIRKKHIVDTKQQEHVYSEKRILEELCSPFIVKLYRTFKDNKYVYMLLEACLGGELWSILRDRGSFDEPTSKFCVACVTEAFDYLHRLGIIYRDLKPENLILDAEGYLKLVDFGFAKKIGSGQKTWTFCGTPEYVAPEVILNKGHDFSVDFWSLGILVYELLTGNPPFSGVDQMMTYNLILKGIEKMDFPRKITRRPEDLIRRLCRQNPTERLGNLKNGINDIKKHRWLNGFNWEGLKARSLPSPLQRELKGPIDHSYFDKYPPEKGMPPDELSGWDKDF

[4] = biological target: T2, TGF-beta receptor type-1 (Homo sapiens) (UniProt P36897); experiment: Inhibition of human recombinant TGFbR1 at 500 nM related to control ULK1
T2 sequence (whole entry): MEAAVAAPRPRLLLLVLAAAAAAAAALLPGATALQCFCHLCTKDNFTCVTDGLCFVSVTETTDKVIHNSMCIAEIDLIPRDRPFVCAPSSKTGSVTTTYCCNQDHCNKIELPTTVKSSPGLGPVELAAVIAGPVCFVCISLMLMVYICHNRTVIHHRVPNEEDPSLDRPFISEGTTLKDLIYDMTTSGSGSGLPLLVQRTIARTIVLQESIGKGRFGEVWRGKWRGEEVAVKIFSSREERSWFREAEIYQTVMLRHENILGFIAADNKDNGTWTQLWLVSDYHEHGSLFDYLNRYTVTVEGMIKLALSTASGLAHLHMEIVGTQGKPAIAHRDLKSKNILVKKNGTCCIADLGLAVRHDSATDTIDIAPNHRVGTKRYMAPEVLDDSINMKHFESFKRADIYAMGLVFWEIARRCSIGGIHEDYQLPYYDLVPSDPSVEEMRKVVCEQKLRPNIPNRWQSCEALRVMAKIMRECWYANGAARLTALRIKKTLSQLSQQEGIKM

[5] = biological target: Calcium/calmodulin-dependent protein kinase type 1B (Homo sapiens) (UniProt Q6P2M8); experiment: Inhibition of human recombinant CaMK1b at 500 nM related to control ULK1
[6] = biological target: G protein-coupled receptor kinase 5 (Homo sapiens) (UniProt P34947); experiment: Inhibition of human recombinant GPRK5 at 15 nM in presence of ATP by radiometric assay relative to control
[7] = biological target: T3, Serine/threonine-protein kinase D3 (Homo sapiens) (UniProt O94806); experiment: Inhibition of human recombinant PKD3 at 40 nM in presence of ATP by radiometric assay relative to control
T3 sequence (whole entry): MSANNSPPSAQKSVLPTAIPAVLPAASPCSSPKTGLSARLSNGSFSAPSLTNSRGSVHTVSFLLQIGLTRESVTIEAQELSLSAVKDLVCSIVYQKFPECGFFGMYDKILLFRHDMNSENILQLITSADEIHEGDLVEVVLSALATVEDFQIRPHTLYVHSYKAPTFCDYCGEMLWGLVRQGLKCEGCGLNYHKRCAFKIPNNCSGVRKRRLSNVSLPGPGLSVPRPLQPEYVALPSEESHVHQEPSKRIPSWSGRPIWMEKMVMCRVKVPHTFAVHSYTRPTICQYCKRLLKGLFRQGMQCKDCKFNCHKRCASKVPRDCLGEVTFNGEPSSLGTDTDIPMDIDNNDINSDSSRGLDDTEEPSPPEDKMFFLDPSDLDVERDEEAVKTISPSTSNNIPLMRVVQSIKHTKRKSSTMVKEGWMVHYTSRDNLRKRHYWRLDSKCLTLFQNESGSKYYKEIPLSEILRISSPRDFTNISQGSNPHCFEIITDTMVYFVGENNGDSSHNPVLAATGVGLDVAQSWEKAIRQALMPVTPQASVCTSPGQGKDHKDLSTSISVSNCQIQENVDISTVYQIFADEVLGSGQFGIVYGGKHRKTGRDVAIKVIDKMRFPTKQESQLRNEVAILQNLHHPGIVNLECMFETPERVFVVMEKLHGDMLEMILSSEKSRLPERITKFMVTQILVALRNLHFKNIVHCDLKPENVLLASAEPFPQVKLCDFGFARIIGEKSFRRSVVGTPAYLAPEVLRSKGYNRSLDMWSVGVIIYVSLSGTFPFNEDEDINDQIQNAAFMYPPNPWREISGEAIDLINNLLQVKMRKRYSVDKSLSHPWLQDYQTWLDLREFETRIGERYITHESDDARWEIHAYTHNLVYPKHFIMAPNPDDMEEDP

[8] = biological target: Serine/threonine-protein kinase 10 (Homo sapiens) (UniProt O94804); experiment: Inhibition of human recombinant LOK at 40 nM in presence of ATP by radiometric assay relative to control
Serine/threonine-protein kinase 10 (Homo sapiens), sequence (O94804 whole entry, looked up): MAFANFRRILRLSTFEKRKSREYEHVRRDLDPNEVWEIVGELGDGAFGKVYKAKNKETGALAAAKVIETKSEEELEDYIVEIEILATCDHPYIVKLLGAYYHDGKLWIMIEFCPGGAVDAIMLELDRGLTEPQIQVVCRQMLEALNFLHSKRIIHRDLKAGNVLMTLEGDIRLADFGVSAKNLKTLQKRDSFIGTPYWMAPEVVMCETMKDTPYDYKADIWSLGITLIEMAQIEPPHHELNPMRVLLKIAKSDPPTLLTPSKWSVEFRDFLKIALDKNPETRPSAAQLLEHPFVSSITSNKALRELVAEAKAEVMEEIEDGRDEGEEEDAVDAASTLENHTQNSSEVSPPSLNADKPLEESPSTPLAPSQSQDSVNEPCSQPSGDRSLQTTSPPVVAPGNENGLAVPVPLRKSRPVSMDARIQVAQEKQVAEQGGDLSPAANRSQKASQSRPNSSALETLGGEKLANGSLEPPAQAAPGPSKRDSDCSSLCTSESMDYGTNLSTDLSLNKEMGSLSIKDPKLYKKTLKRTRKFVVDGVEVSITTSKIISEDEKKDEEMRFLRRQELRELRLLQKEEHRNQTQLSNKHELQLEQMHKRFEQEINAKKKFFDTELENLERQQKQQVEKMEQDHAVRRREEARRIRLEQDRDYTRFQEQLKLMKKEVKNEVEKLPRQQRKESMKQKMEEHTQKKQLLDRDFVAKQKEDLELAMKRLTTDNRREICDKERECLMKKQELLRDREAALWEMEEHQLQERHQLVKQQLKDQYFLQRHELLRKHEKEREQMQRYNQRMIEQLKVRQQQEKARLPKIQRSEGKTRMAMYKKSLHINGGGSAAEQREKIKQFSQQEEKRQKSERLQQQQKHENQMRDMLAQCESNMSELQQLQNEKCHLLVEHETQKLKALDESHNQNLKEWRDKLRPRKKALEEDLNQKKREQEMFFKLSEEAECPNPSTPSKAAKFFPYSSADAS

Calcium/calmodulin-dependent protein kinase type 1B (Homo sapiens), sequence (Q6P2M8 whole entry): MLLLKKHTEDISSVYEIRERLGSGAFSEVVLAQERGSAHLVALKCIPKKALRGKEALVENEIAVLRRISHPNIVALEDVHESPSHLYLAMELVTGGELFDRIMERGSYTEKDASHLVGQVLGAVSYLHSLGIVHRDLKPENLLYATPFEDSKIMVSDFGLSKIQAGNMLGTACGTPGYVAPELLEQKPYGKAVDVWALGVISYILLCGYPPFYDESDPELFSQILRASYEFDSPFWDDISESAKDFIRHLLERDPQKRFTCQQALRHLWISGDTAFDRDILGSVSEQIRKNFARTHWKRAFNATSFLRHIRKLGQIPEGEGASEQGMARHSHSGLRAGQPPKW
Mitogen-activated protein kinase 11 (Homo sapiens), sequence (Q15759 whole entry): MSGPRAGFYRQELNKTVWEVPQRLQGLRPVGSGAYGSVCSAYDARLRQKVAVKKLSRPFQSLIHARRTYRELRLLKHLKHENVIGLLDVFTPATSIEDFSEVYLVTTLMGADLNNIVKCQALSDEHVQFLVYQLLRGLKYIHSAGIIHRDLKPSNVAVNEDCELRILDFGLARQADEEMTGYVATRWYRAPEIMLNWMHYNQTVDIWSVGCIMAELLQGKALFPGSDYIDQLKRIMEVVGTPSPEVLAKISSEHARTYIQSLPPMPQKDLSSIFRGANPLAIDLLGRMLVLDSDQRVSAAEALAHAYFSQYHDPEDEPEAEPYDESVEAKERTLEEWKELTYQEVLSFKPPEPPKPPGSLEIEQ
G protein-coupled receptor kinase 5 (Homo sapiens), sequence (P34947 whole entry, looked up): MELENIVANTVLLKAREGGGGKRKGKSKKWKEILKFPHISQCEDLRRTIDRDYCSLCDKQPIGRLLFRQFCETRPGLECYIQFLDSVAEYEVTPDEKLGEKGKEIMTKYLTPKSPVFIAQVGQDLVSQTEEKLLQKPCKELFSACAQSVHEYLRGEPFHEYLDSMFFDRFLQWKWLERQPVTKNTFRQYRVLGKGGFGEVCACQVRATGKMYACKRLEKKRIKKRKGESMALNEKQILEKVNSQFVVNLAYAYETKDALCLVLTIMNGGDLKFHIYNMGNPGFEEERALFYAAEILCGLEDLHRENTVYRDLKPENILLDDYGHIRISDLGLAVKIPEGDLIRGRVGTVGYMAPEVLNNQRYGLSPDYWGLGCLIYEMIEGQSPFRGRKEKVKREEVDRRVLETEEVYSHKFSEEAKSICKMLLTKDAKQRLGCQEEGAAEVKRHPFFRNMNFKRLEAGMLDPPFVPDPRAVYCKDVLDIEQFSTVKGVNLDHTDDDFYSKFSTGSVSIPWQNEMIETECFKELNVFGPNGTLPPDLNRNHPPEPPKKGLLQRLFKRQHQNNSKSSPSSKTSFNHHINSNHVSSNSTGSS

inhibition [1]: 2%
inhibition [2]: 0%
inhibition [3]: 2%
fold change (FC) [4]: 0
fold change (FC) [5]: 0
SMILES: CNC(=O)c1ccccc1Oc1nc(Nc2cc(OC)c(OC)c(OC)c2)ncc1Br

inhibition [6]: 0%
SMILES: CC(C)[C@H](NC(=O)c1cc(-c2cnn3cc(-c4ccc(OCCN5CCCCC5)cc4)cnc23)cs1)C(F)(F)F

inhibition [7]: 7%
inhibition [8]: 0%
SMILES: O=C(N[C@@H](C1CC1)C(F)(F)F)c1cc(-c2cnn3cc(-c4ccc(F)cc4)cnc23)cs1
